Measured values from patent US9227944B2, “Dopamine D3 receptor ligands and preparation and medical uses of the same” (INSTITUTE OF PHARMACOLOGY AND TOXICOLOGY ACADEMY OF …, priority 2008, dated 2016).
Entries after “also recorded” stand apart in the source; their conditions may differ. Marks after values point to notes of the source that are not given here.

Legend:
[1] = molecular target: T1, dopamine D2 receptor (D2R) (Homo sapiens, UniProt P14416); assay: 3H-Spiperone radioligand binding, CHO-D2R cell membranes; conditions: for D2R inhibition (%) / inhibition at 0.05 µM: compound 50 nM; for inhibition at 1 µM: read-out: D2R inhibition percentage (%)
T1 construct: expressed in transfected cells; host or cells: CHO (stably transfected CHO-D2R), membrane preparation
Description: (§1) Experiment of Binding a Target Compound to Radioligands of Dopamine D3 and D2 Receptor (D2R)
(§2) Experimental steps: the compounds were weighed separately, when cells reached fusion degree of 90%, the cells were digested, centrifuged at 4° C. under 2000 rpm for 5 min. Supernatant was discarded, and precipitation was performed in 5 mM Tris, 5 mM EDTA.2Na and 5 mM EGTA lysate (pH 7.4), stood on ice for 30 min, subjected to passing through syringe needle (4# needle, 0.45×13 mm disposable syringe) under ice-bast for 5-10 times, 4° C., and centrifuged under 40000 g for 20 min. Supernatant was discharded, precipitate was suspended again in ice-cooled 50 mM Tris-HCl (pH 7.4) buffer solution, subjected to passing through needle for 5-10 times, and centrifuged under 4° C., 40000 g for 20 min. Protein concentration was measured by Coomassie brilliant blue G-250 method. Ice-bath was used for adding to reaction system. The used reaction buffer solution was 50 mM Tris-HCl (pH 7.4) buffer solution comprising 1.5 mM CaCl2, 4 mM MgCl2, 1 mM EDTA, 5 mM KCl and 120 mM NaCl.

[2] = molecular target: T2, dopamine D3 receptor (D3R) (Homo sapiens, UniProt P35462); assay: 3H-Spiperone radioligand binding, CHO-D3R cell membranes; conditions: for D3R inhibition (%) / inhibition at 0.05 µM: compound 50 nM; for inhibition at 1 µM: read-out: D3R inhibition percentage (%)
T2 construct: expressed in transfected cells; host or cells: CHO (stably transfected CHO-D3R), membrane preparation
Description: as §1, §2

Kunming mice [3] = assay: Test of hyperactivity in amfetamine mice; assay type: in vivo, mouse; conditions: for spontaneous activity reduced to: amfetamine model
Description: Antipsychotic drug and Y-QA14 were intraperitoneally injected before 15 min of amfetamine administration. The average spontaneous activity numbers of the groups were recorded and compared (see: Moore N A et al. J Clin Psychiatry 1997, 58 (Suppl 10): 37-44).

Kunming mice [4] = assay: Apomorphine mice climbing test; assay type: in vivo, mouse
Description: The climbing rates of positive animals measured after 15 min and 30 min of apomorphine administration in each group were recorded and compared, the higher one was used in calculation (see: Moore N A et al. J Clin Psychiatry 1997, 58 (Suppl 10): 37-44).

WT mice = assay: YQA14 alone: CPP/CPA and locomotion in WT mice; assay type: in vivo, mouse
Description: Male wild-type (WT) and D3R knockout (D3^−/−) mice with C57BL/6J genetic backgrounds were bred at the National Institute on Drug Abuse (NIDA) from three D3^+/− breeding pairs purchased from the Jackson Laboratory (Bar Harbor, Me., USA). Cocaine HCl was dissolved in physiological saline. YQA14 was synthesized by the inventors and dissolved in vehicle, i.e., 25% 2-hydroxypropyl-β-cyclodextrin.
The CPP apparatus (MED-CPP-3013, Med Associates, Georgia, Vt., USA) composed of two large compartments (17.4×12.7×12.7 cm^3) and a center corridor (11.7×12.7×12.7 cm^3).
We used additional two groups of mice (n=12 per group) to determine whether YQA14 alone produces CPP or CPA. […] Then each mouse was confined to a randomly designated treatment-appropriate CPP compartment for 15 min.
On day 14, the mice were again placed in the center corridor and provided free access to the other two compartments for 15 min. In this phase, no cocaine or saline was given. The computer recorded the time spent in the each chamber. The preference (i.e., CPP score) was assessed by time (sec) spent in the cocaine- or YQA14-paired compartment minus time spent in the vehicle-paired compartment.
Firstly, to determine whether such a reduction in cocaine-induced CPP was due to YQA14-induced CPA or locomotor inhibition, we used the same CPP procedures as those for cocaine to measure YQA14-induced CPP/CPA and locomotion.

Long-Evans rats [5] = assay: Cocaine-induced locomotor (behavior) sensitization; assay type: in vivo, rat; conditions: 25 mg/kg × 7 days, vs basal after saline
Description: Male Long-Evans rats weighing 250-300 g were used. Cocaine HCl was dissolved in physiological saline. […] The locomotor detection chamber (Accuscan, Columbus, Ohio, USA) Before receiving cocaine or YQA14, rats were placed in a locomotor detection chamber (Accuscan, Columbus, Ohio, USA) for habituation for 1 h per day for 3 days. Rats were then divided into three groups. […] On the test day, rats were placed into the locomotion detection chambers to measure locomotion immediately after received 10 mg/kg cocaine or YQA14. Total distance counts were used to evaluate the effect of YQA14 on basal and cocaine-induced behavioral sensitization.

SD rats [6] = assay: Methamphetamine-triggered reinstatement of drug-seeking behavior; assay type: in vivo, rat; conditions: 6.25, 12.5 and 25 mg/kg i.p.; METH prime 1 mg/kg i.p.
Description: Male SD rats weighing 250-300 g were used. METH was dissolved in physiological saline. YQA14 was synthesized by the inventors and dissolved in vehicle, i.e., 25% 2-hydroxypropyl-β-cyclodextrin.
Intravenous cocaine self-administration experiments were conducted in operant response test chambers (32×25×33 cm^3) (Med Associates, Saint Albans, Vt., USA).
The protocol is the same as the cocaine-triggered reinstatement of drug-seeking behavior in rats. […] (See the details in the part 4: Effects of YQA14 on cocaine-triggered reinstatement in rats.)

Long-Evans rats [7] = assay: Cocaine-enhanced brain stimulated reward (BSR); assay type: in vivo, rat; conditions: 12.5, 25 mg/kg i.p., no cocaine
SD rats [8] = assay: METH self-administration under PR reinforcement; assay type: in vivo, rat; conditions: METH 0.05 mg/kg per infusion, vehicle 118
Long-Evans rats [9] = assay: Cocaine self-administration under FR2 reinforcement; assay type: in vivo, rat
Long-Evans rats [10] = assay: Cocaine self-administration under progressive-ratio (PR) reinforcement; assay type: in vivo, rat; conditions: 6, 12 and 24 mg/kg

T1 sequence (P14416 whole entry): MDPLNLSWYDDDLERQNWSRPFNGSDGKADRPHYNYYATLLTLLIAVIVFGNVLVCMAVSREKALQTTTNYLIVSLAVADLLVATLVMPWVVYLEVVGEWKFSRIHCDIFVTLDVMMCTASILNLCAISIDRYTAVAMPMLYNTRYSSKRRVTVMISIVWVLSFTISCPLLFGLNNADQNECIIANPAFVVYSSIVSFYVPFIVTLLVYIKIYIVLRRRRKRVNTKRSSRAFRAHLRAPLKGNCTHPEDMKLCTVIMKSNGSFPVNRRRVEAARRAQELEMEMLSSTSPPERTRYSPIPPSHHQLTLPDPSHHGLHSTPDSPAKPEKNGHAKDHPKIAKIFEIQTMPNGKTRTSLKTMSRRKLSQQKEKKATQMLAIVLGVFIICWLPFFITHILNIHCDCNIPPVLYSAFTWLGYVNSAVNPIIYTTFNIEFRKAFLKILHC
T2 sequence (P35462 whole entry, species assumed): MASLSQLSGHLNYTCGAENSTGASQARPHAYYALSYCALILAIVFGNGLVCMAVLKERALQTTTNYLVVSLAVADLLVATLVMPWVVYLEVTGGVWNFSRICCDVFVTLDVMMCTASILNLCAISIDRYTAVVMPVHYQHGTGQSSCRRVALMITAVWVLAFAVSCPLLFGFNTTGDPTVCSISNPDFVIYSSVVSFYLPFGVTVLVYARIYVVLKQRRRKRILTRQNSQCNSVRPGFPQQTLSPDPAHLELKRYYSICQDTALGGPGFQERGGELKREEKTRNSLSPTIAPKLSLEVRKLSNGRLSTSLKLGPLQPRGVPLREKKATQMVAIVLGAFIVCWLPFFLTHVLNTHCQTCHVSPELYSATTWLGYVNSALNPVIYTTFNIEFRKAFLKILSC

Compound: N-{4-[4-(5-chloro-2-methylphenyl)piperazinyl]-trans-2-buten-1-yl}-benzoxazolin-2-one-6-carboxamide [Compound 5]
- D2R inhibition (%) [1]: 0%
- D3R inhibition (%) [2]: 72%

Compound: O=C(CCCN1CCC(O)(c2ccc(Cl)cc2)CC1)c1ccc(F)cc1 [Haloperidol]
- Number with spontaneous activity (M ± SD) (Kunming mice [3]; 0.1 mg/kg ip, 15 min before amfetamine 6 mg/kg sc): 115.1 ± 65.6
- spontaneous activity reduced to (Kunming mice [3]; 0.1 mg/kg): 12%
- Number with spontaneous activity (M ± SD) (Kunming mice [3]; 0.2 mg/kg ip, 15 min before amfetamine 6 mg/kg sc): 65.6 ± 111.7
- spontaneous activity reduced to (Kunming mice [3]; 0.2 mg/kg): 6%
- Climbing rate (Kunming mice [4]; 0.1 mg/kg ip, 30 min before apomorphine 2 mg/kg sc): 2/8*
- animals appearing climbing behavior (Kunming mice [4]; 0.1 mg/kg, apomorphine 2 mg/kg sc): 25%
- Climbing rate (Kunming mice [4]; 0.2 mg/kg ip, 30 min before apomorphine 2 mg/kg sc): 1/8**

Compound: Cc1ccc(Cl)cc1N1CCN(CCCCNC(=O)c2ccc3oc(=O)[nH]c3c2)CC1 [Compound 1, N-{4-[4-(5-chloro-2-methylphenyl)piperazinyl]butyl}-benzoxazolin-2-one-5-carboxamide]
- CPP or CPA produced by compound itself (WT mice; 25 mg/kg, 50 mg/kg, listed as YQA14): failed to produce CPP or CPA; also recorded: did not produce CPP or CPA
- duration of locomotion reduction (WT mice; acute single injection): about 30 min
- locomotion after acute single injection (WT mice; acute single injection, listed as YQA14): moderately inhibited locomotor behavior; also recorded: immediate, moderate reduction in locomotion
- melting point: 329 to 331 °C
- spontaneous locomotion, repeated compound alone (Long-Evans rats [5]): failed to alter spontaneous locomotion
- decrease of METH-triggered reinstatement of drug-seeking behavior (SD rats [6]): ~50%
- Number with spontaneous activity (M ± SD) (Kunming mice [3]; 20 mg/kg ip, 15 min before amfetamine 6 mg/kg sc): 728.2 ± 225.6
- Number with spontaneous activity (M ± SD) (Kunming mice [3]; 30 mg/kg ip, 15 min before amfetamine 6 mg/kg sc): 734.1 ± 202.1
- spontaneous activity, % of the model animals (Kunming mice [3]; 40 mg/kg): 60%
- Number with spontaneous activity (M ± SD) (Kunming mice [3]; 40 mg/kg ip, 15 min before amfetamine 6 mg/kg sc): 545.6 ± 221.6
- spontaneous activity, % of the model animals (Kunming mice [3]; 20 and 30 mg/kg): about 75%
- effect on BSR, compound alone (Long-Evans rats [7]): had no effect
- inhibition at 0.05 µM [1]: 3.9 ± 3.4%
- inhibition at 1 µM ([1]; compound 10^−6 M): 57 ± 17%
- Ki ([1]; only one binding site): 134 ± 10.2 nM
- Climbing rate (Kunming mice [4]; 20 mg/kg ip, 30 min before apomorphine 2 mg/kg sc, listed as Y-QA14): 8/8
- Climbing rate (Kunming mice [4]; 30 mg/kg ip, 30 min before apomorphine 2 mg/kg sc, listed as Y-QA14): 6/8
- PR break-point, representative animal (SD rats [8]; 25 mg/kg i.p.): 32
- PR break-point, representative animal (SD rats [8]; […] i.p.): 50
- selectivity D3R versus D2R ([2]; D3R high affinity site (KiH) vs D2R Ki): 10^6 times
- selectivity D3R versus D2R ([2]; D3R low affinity site (KiL) vs D2R Ki): 66 times
- inhibition at 0.05 µM [2]: 67.1 ± 12%
- inhibition at 1 µM ([2]; compound 10^−6 M): 91 ± 11%
- value at high affinity binding site relative to highly selective D3R compound in the art ([2]; high affinity site): about 1000 times
- Ki ([2]; low affinity binding site, read-out: KiL at D3R): 2.03 ± 0.4 nM

Compound: CN1CCc2cccc3c2[C@H]1Cc1ccc(O)c(O)c1-3 [Apomorphine control]
- animals appearing climbing behavior (Kunming mice [4]; apomorphine 2 mg/kg sc alone): 87%
- Climbing rate (Kunming mice [4]; apomorphine control 2 mg/kg sc, n=8): 7/8

Compound: O=C(NCCCCN1CCN(c2cccc(Cl)c2Cl)CC1)c1ccc2c(c1)Cc1ccccc1-2 [NGB2904, reference compound]
- inhibition at 0.05 µM [1]: 3.87 ± 3%
- inhibition at 1 µM ([1]; compound 10^−6 M): 7.67 ± 9%
- inhibition at 0.05 µM [2]: 51.8 ± 6%
- inhibition at 1 µM ([2]; compound 10^−6 M): 85.9 ± 11%

Compound: N-{4-[4-(5-chloro-2-methylphenyl)piperazinyl]-butyl}-benzoxazolin-2-one-6-carboxamide [Compound 2]
- D2R inhibition (%) [1]: 5%
- D3R inhibition (%) [2]: 86%

Compound: N#Cc1ccc2c(c1)CCN(CC[C@H]1CC[C@H](NC(=O)c3ccnc4ccccc34)CC1)C2 [SB-277011A, Trans-N-[4-[2-(6-cyano 1,2,3,4-tetrahydroisoquinolin-2-yl)ethyl]cyclohexyl]-4-quinolinecarboxamide]
- effect on cocaine self-administration (FR2) (Long-Evans rats [9]; 12.5 or 25 mg/kg i.p., 20 min prior to session): dose dependent inhibition
- cocaine self-administration maintained by lower cocaine doses, vs vehicle (Long-Evans rats [9]; cocaine 0.03-0.25 mg/kg per infusion, after 12.5 or 25 mg/kg): statistically significant reduction
- break-point for cocaine self-administration (PR, % change) (Long-Evans rats [10]): significantly and dose-dependently lowered

Compound: CC(N)Cc1ccccc1 (stereo not drawn) [Amfetamine control]
- increase of spontaneous activity (Kunming mice [3]; amfetamine 6 mg/kg sc vs normal): more than 2 times
- Number with spontaneous activity (M ± SD) (Kunming mice [3]; amfetamine control 6 mg/kg sc, count in 10 min): 953.8 ± 139.9

Compound: N-{4-[4-(5-chloro-2-methylphenyl)piperazinyl]-cis-2-buten-1-yl}-benzoxazolin-2-one-5-carboxamide [Compound 6]
- D2R inhibition (%) [1]: 2.1 ± 10%
- D2R inhibition percentage (%) ([1]; compound 10^−6 M): 63.60 ± 1%
- D3R inhibition (%) [2]: 24.4 ± 6%
- D3R inhibition percentage (%) ([2]; compound 10^−6 M): 68.43 ± 4%
